Measurements as given in patent US5108916A, “Process for stereoselectively hydrolyzing, transesterifying or esterifying with immobilized isozyme of lipase from Candida rugosa” (priority 1989, dated 1992).
Where “and” joins values, the source holds several entries; their conditions need not be identical. Equal values may be shown once.

What follows are compounds tested on CSC-2 (assay: Effect of additives and solvents on hydrolysis of ketoprofen monoglyceride by CSC-2). Settings: not given.
Format: biochemical, Candida rugosa
Protocol: Hydrolysis of ketoprofen-monoglyceride (50mg) was carried out in various DMF-100mM (NH4)H2 PO4 buffer (pH 5.5) mixtures. In each flask a solution of ketoprofen monoglyceride (50mg) in DMF (200ul) was added. DMF was added followed by 100mM (NH4)H2 PO4 buffer. […] After 22 hours, 2%, 5%, and 10% DMF samples were acidified, extracted with CHCl3 (2×10ml) and analyzed. The other samples were analyzed directly as in Example 18. The acid produced decreases with increasing amount of DMF.
Small amounts of DMF were added to the reaction mixture to increase the solubility of KPG. In all cases 100mM ammonium phosphate buffer (pH 5.5) was used and 2% (v/v) detergents were added and the total volume was 10ml.
The buffer reaction (entry #2 in the table) contained enzyme in buffer (2 ml) and the buffer only (entry #1 in the table) reaction contained no enzyme.
The presence of a surfactant like Tween increases the solubility o lipophilic compounds in water. […] Tween 80 was added to make 1% and 2% solution (v/v). Bovine serum albumin (BSA) (10mg) was added to each of two flasks. A solution of 50mg of ketoprofen monoglyceride in 200ul DMF was added to each. After 20 hours at 250 rpm and 35° C. the reaction mixtures were acidified, extracted and analyzed by the usual HPLC procedure as in Example 18.
Various surfactants were used at 2% of the reaction volume to determine their effect on the enzymatic reaction involving the conversion of ketoprofen monoglyceride (KPG) to ketoprofen (KP). […] Flasks were covered with parafilm and incubated in a 35° C. water bath at 250 rpm, typically overnight. Reactions were stopped by acidification, extracted with CHCl3 (2×10 ml). The %acid and %ee were determined by the method of Example 18. It is to be noted that Hydrophile-Lipophile Balance (HLB) values have no apparent bearing on the ability of the surfactant to enhance the conversion of KPG to KP.
75 mg of KPG (in the absence of DMF) was individually weighed into 50 ml Erlenmeyer flasks. […] 9 ml of 100 mM (NH4)H2 PO4, pH 5.5 buffer was added, and the flasks were placed into a 35° C., 250 rpm water bath incubator for 20 hours. The reactions were acidified, extracted with CHCl3 and examined by HPLC as in Example 18. The %ee was determined as per Example 18.
Various amounts of oleic acid or its esters were added, and the reactions stopped at the times indicated, acidified, extracted with CHCl3 and analyzed as in Example 18.
An experiment was performed as in Example 41, but using 100, 200 and 500 ul of olive oil to determine if it would enhance the rate of conversion of KPG to KP. […] After 20 hours, all reactions were acidified, extracted with CHCl3 and analyzed by HPLC as in Example 18. The results are given below:
50 mg of KPG was weighed into Erlenmeyer flasks. […] Flasks were incubated at 35° C., 250 rpm for 23 hours. The reactions were stopped by acidification, extracted with CHCl3, and analyzed by HPLC as in Example 18. The additive is listed along with its percentage composition of glycerides of oleic acid.
To determine the problems associated with having oleic acid or oleate. esters in the reaction media, the following experiment was performed. […] Flasks were placed in a 35° C. incubator at 250 rpm, and the reactions were sampled by taking 200 ul aliquots at various time points. These aliquots were analyzed by HPLC (ODS-3 RAC column, CH3 OH: 10 mM (NH4)H2 PO4 (60:40) eluant, 4 ml/min, 254 nm detection) to determine the course of reaction. When approximately 40% acid was produced, the reactions were stopped by placing the flasks in the -70° C. freezer. Two extraction procedures were utilized to determine the best method of isolating S-Ketoprofen free of oleic acid. The first (listed as Extraction Procedure I in the following table) involved first making the solution basic (pH 10) with NaOH, then extracting with hexane, then CHCl3.
`CCc1ccccc1` [Ethylbenzene] was tested, and the “EE of S-acid” value was 48%.

Same assay, conditions: 5 g KPG, 50 mg CSC-2, 5 grams additive
In the case of `CCCCCCCC/C=C\CCCCCCCC(=O)O` [oleic acid], the “Final % Acid” value is reported as 39% and the Rate is reported as 1.2 µmol/h/mg.
For Span 85, the “Final % Acid” value was 28.9% and the Rate was 0.87 µmol/h/mg.
In the case of Tween 80, the “Final % Acid” value is reported as 34.9% and the Rate is reported as 0.46 µmol/h/mg.

Same assay, conditions: 200 ul DMF; b1067-b1069 18 hr, b1070-b1084 23 hr; amounts: 200 ul except tributyrin, dilinolein, trilinoein 100 ul, monostearin, distearin 25 ul, tristearin 28 ul; 0 = CSC-2 alone
With `CCCCC/C=C\C/C=C\CCCCCCCC(=O)OCC` [Linoleic acid ethyl ester] the “% Acid” value was 26%.
For `CC(=O)OCC(COC(C)=O)OC(C)=O` [Triacetin], the “% Acid” value was 12%.
`CCCCC/C=C\C/C=C\CCCCCCCC(=O)OCC(O)COC(=O)CCCCCCC/C=C\C/C=C\CCCCC` [dilinolein] was tested, and the “% Acid” value was 20%.
For `CCCCCCCCCCCCCCCCCC(=O)OCC(O)COC(=O)CCCCCCCCCCCCCCCCC` [distearin], the “% Acid” value was 30%.
In the case of `CCCCC/C=C\C/C=C\CCCCCCCC(=O)OC` [linoleic acid methyl ester], the “% Acid” value is reported as 34%.
`CCCCC/C=C\C/C=C\CCCCCCCC(=O)O` [linoleic acid] was tested, and the “% Acid” value was 21%.
In the case of `CC/C=C\C/C=C\C/C=C\CCCCCCCC(=O)O` [linolenic acid], the “% Acid” value is reported as 13%.
For `CCCCCCCCCCCCCCCCCC(=O)OCC(O)CO` (stereo not drawn) [monostearin], the “% Acid” value was 31%.
In the case of `CCCC(=O)OCC(COC(=O)CCC)OC(=O)CCC` [tributyrin], the “% Acid” value is reported as 3%.
`CCCCC/C=C\C/C=C\CCCCCCCC(=O)OCC(COC(=O)CCCCCCC/C=C\C/C=C\CCCCC)OC(=O)CCCCCCC/C=C\C/C=C\CCCCC` [trilinoein] was tested, and the “% Acid” value was 20%.
In the case of `CCCCCCCCCCCCCCCCCC(=O)OCC(COC(=O)CCCCCCCCCCCCCCCCC)OC(=O)CCCCCCCCCCCCCCCCC` [tristearin], the “% Acid” value is reported as 25%.

Same assay, conditions: 18 hr with 100 ul (b930-b936), 23 hr with 200 ul (b937-b944); None = CSC-2 alone
For `CCCCCCCC/C=C\CCCCCCCC(=O)OCC(O)CO` (stereo not drawn) [Monolein], the “% Acid” value was 43%.
With `CCCCCCCC/C=C\CCCCCCCC(=O)OCC` [oleic acid ethyl ester] the “% Acid” value was 52%.
In the case of `CCCCCCCC/C=C\CCCCCCCC(=O)OC` [oleic acid methyl ester], the “% Acid” value is reported as 51%.
With `CCCCCCCC/C=C\CCCCCCCC(=O)O` [oleic acid] the “% Acid” value was 47%.
`CCCCCCCC/C=C\CCCCCCCC(=O)OCC(COC(=O)CCCCCCC/C=C\CCCCCCCC)OC(=O)CCCCCCC/C=C\CCCCCCCC` [triolein] was tested, and the “% Acid” value was 38%.
For Diolein, the “% Acid” value was 42%.

Same assay, conditions: 20 hours; b844=no Tween no BSA, b846=1% Tween and BSA, b848=2% Tween and BSA, b850=2% Tween no BSA; 1200 min
Tween 80 was tested, and the “Relative Rate” value was 114 and 142 and 118.

Same assay, conditions: 23 hr, 200 ul; None = CSC-2 alone
With `CCCCCCCC/C=C\CCCCCCCC(=O)OCC` [oleic acid ethyl ester] the “% ee S-acid” value was 96%.
With `CCCCCCCC/C=C\CCCCCCCC(=O)OC` [oleic acid methyl ester] the “% ee S-acid” value was 97%.
With `CCCCCCCC/C=C\CCCCCCCC(=O)O` [oleic acid] the “% ee S-acid” value was 96%.

Same assay, conditions: additive 100 ul, 75 mg KPG, no DMF, 20 hours
With Span 80 the “% Acid” value was 27%.
Span 85 was tested, and the “% Acid” value was 28%.
In the case of Tween 80, the “% Acid” value is reported as 12%.
sorbitan sesquioleate [Arlacel 83] was tested, and the “% Acid” value was 30%.

Same assay, conditions: additive 200 ul
For Span 80, the “S-acid (% ee)” value was 97.
Span 85 was tested, and the “S-acid (% ee)” value was 96.
For Tween 80, the “S-acid (% ee)” value was 96.
In the case of sorbitan sesquioleate [Arlacel 83], the “S-acid (% ee)” value is reported as 99.

Same assay, conditions: additive 200 ul, 75 mg KPG, 20 hours
Span 80 was tested, and the “% Acid” value was 28%.
For Span 85, the “% Acid” value was 33%.
In the case of Tween 80, the “% Acid” value is reported as 22%.
In the case of sorbitan sesquioleate [Arlacel 83], the “% Acid” value is reported as 30%.

Same assay, conditions: additive 500 ul, 75 mg KPG, 20 hours
With Span 80 the “% Acid” value was 27%.
In the case of Span 85, the “% Acid” value is reported as 34%.
For Tween 80, the “% Acid” value was 18%.
In the case of sorbitan sesquioleate [Arlacel 83], the “% Acid” value is reported as 29%.

Same assay, conditions: as E102
For Span 85, the “% ee” value was 93% and 96% and 95% and 97%.
For Tween 80, the “% ee” value was 96% and 92% and 86% and 97% and 93%.

Same assay, conditions: as E149
For Tween 80, the “ee of S-acid” value was 95% and 96%.

Same assay, conditions: as E158
`CCCCCCCC/C=C\CCCCCCCC(=O)OCC(O)CO` (stereo not drawn) [Monolein] gave a Rate of 4.
`CCCCCCCC/C=C\CCCCCCCC(=O)OCC` [oleic acid ethyl ester] gave a Rate of 4.
For `CCCCCCCC/C=C\CCCCCCCC(=O)OC` [oleic acid methyl ester], the Rate was 3.
With `CCCCCCCC/C=C\CCCCCCCC(=O)O` [oleic acid] the Rate was 3.
In the case of `CCCCCCCC/C=C\CCCCCCCC(=O)OCC(COC(=O)CCCCCCC/C=C\CCCCCCCC)OC(=O)CCCCCCC/C=C\CCCCCCCC` [triolein], the Rate is reported as 3.
Compound Diolein has a Rate of 4.

Same assay, conditions: extraction procedure I for oleic acid and corn oil, II for the others
For `CCCCCCCC/C=C\CCCCCCCC(=O)O` [oleic acid], the “Isolated % ee (S-Acid)” value was 88%.
With Span 85 the “Isolated % ee (S-Acid)” value was 95.1%.
Tween 80 was tested, and the “Isolated % ee (S-Acid)” value was 94.3%.

Same assay, conditions: pH 5.5, 960 min
`ClC(Cl)Cl` [Chloroform] was tested, and the “Relative Rate” value was 0.
For `CCOCC` [Ethyl ether], the “Relative Rate” value was 0.

Same assay, conditions: solvent/buffer 1:1 two phase, 16 hour reactions
For `CCC(=O)CC` [3-Pentanone], the “Relative Rate” value was 0.
In the case of `OCc1ccccc1` [Benzyl alcohol], the “Relative Rate” value is reported as 0.
For `O=C1CCCCC1` [Cyclohexanone], the “Relative Rate” value was 0.
`ClCCl` [Dichloromethane] was tested, and the “Relative Rate” value was 0.
`CCOC(C)=O` [Ethyl acetate] was tested, and the “Relative Rate” value was 0.
With `ClCCCl` [Ethylene dichloride] the “Relative Rate” value was 0.
For `CCCCO` [n-Butanol], the “Relative Rate” value was 0.
With `CCCCCCO` [n-Hexanol] the “Relative Rate” value was 0.
`CCCCCCCCO` [n-Octanol] was tested, and the “Relative Rate” value was 0.

Same assay, conditions: solvent/buffer 1:1 two phase, 26 hours
With `CC(C)OC(C)C` [Isopropyl ether] the “EE of S-acid” value was 69%.

Same assay, conditions: solvent/buffer 1:1 two phase, 26 hours; buffer = 100
For `CCc1ccccc1` [Ethylbenzene], the “Relative Rate” value was 18.
`CC(C)OC(C)C` [Isopropyl ether] was tested, and the “Relative Rate” value was 53.

Same assay, conditions: surfactant 2% of reaction volume, 200 ul DMF; enzyme alone = 100
POE-2 oleyl ether [Brij 92] was tested, and the “Relative Rate” value was 27.
For POE-2 stearyl ether [Brij 72], the “Relative Rate” value was 106.
For POE-10 oleyl ether [Brij 96], the “Relative Rate” value was 27.
POE-10 stearyl ether [Brij 76] was tested, and the “Relative Rate” value was 18.
For POE-20 oleyl ether [Brij 99], the “Relative Rate” value was 15.
In the case of POE-20 stearyl ether [Brij 78], the “Relative Rate” value is reported as 14.
In the case of POE-23 lauryl ether [Brij 35], the “Relative Rate” value is reported as 26.
For Span 20, the “Relative Rate” value was 75.
For Span 40, the “Relative Rate” value was 99.
In the case of Span 60, the “Relative Rate” value is reported as 108.
For Span 80, the “Relative Rate” value was 160.
For Span 85, the “Relative Rate” value was 181.
With Tween 20 the “Relative Rate” value was 39.
With Tween 40 the “Relative Rate” value was 29.
With Tween 60 the “Relative Rate” value was 23.
For Tween 61, the “Relative Rate” value was 92.
Tween 65 was tested, and the “Relative Rate” value was 39.
Tween 80 was tested, and the “Relative Rate” value was 136.
With Tween 85 the “Relative Rate” value was 27.
sorbitan sesquioleate [Arlacel 83] was tested, and the “Relative Rate” value was 172.
